# Legend:
# parent HEK293T cells = assay: Luciferase assay in parent (control) HEK293T cells without STING; assay type: cell-based, human; settings: HEK293T cells that do not express STING (S1 Fig)
# Experimental: (§1) […] clonally selected HEK293T-hSTING-Luciferase cells or control HEK293T-Luciferase cells were seeded in 384-well plates in growth medium and stimulated with known STING agonists or novel compounds. Supernatants were removed after 20 hours of treatment and secretory reporter gene activity was measured using the Quanti-Luc detection system (Invivogen) on a Spectramax i3X luminometer.
# [1] = molecular target: HAQ variant of human STING (Homo sapiens, UniProt Q86WV6, G230A/R293Q/R71H); assay: Luciferase (ISRE.ISG reporter) assay in HEK293T cells stably expressing HAQ hSTING; assay type: cell-based; settings: ISRE.ISG54 luciferase reporter, 18 hours, compared with R232 and H232
# Text: (§2) • a) Stable STING expressing cells. Stable HEK293T STING-expressing cell lines were generated using plasmids purchased from Invivogen, CA, USA, that contain STING cDNA cloned into the pUNO-1 vector under the hEF1-HTLV promoter as well as the Blasticidin selection cassette. The human STING plasmids corresponding to the R232, H232 and HAQ variants were directly procured from Invivogen while the AQ and Q variants were created by mismatch PCR using cDNA from HAQ.STING and R232.STING variants respectively. These vectors were individually transfected into HEK293T cells using Lipofectamine (Invitrogen) and transfected cells were expanded under Blasticidin selection. These cells were further subjected to clonal selection using the limiting dilution method to obtain clonally pure populations of HEK293T cells expressing each of the five human STING variants. Clones with minimal ligand independent activation of STING were chosen for cellular experiments. • b) N-His R232.hSTING HEK293T cells. HEK293T cells stably expressing N-His R232.hSTING were generated by the following described method. N-His R232.hSTING.pcDNA Myc B plasmid was transfected into HEK293T cells using Lipofectamine reagent (Invitrogen) and the transfected cells were selected under Hygromycin. […]
# Q variant of human STING = molecular target: T1, Q variant of human STING (Homo sapiens, UniProt Q86WV6, R293Q); assay: Luciferase (ISRE.ISG reporter) assay in HEK293T cells stably expressing Q hSTING; assay type: cell-based
# T1 construct: expressed in transfected cells
# Text: as §2, with “cells.” for “cells. HEK293T cells stably expressing N-His R232.hSTING were generated by the following described method. N-His R232.hSTING.pcDNA Myc B plasmid was transfected into HEK293T cells using Lipofectamine reagent (Invitrogen) and the transfected cells were selected under Hygromycin.”
# as §1
# [2] = molecular target: H232 variant of human STING (Homo sapiens, UniProt Q86WV6); assay: Luciferase (ISRE.ISG reporter) assay in HEK293T cells stably expressing H232 hSTING; assay type: cell-based; settings: ISRE.ISG54 luciferase reporter, 18 hours, read-out: estimated EC50, H232 variant
# Text: as §2, with “cells.” for “cells. HEK293T cells stably expressing N-His R232.hSTING were generated by the following described method. N-His R232.hSTING.pcDNA Myc B plasmid was transfected into HEK293T cells using Lipofectamine reagent (Invitrogen) and the transfected cells were selected under Hygromycin.”
# as §1
# HAQ STING (THP-1 cells) = molecular target: T2, HAQ STING (THP-1 cells) (Homo sapiens, UniProt Q86WV6, G230A/R293Q/R71H); assay: THP1 cellular assay (EC50); assay type: cell-based; settings: THP-1 cells (HAQ STING)
# T2 construct: THP1 cells constitutively express the HAQ variant of human STING; host or cells: THP-1
# R232.hSTING (CT26 cells) = molecular target: T3, R232.hSTING (CT26 cells) (Homo sapiens, UniProt Q86WV6, H232R); assay: Western blot of Hu-pSTING and pIRF3 in R232.hSTING.CT26 cells; assay type: cell-based; settings: immunoblot, 2 hours
# T3 construct: expressed in transfected cells; host or cells: CT26 (murine)
# Experimental: (§3) 5 x 10^5 cells were seeded in 24-well plates in 500 μl growth medium and stimulated with novel compounds at 10μM. After 2 hours of treatment cells were harvested by centrifugation and cell pellets were lysed in RIPA buffer (20mM Tris-Cl, 150mM NaCl, 0.5mM EDTA, 1% NP40, 0.05% SDS) containing 1x phosphatase inhibitor cocktail 3 (Sigma) and 1x protease inhibitor (Roche) to extract the soluble fraction of protein. 10 μg of extracted protein was electrophoresed in 10% SDS-PAGE gels and transferred onto Immobilon-P membranes (Millipore).
# [3] = Solubility under assay conditions; assay type: physicochemical; settings: under our assay conditions; read-out: maximum solubility
# [4] = molecular target: T4, mSTING (wild type CT26 cells) (Mus musculus, UniProt Q3TBT3); assay: Western blot of pSTING and pIRF3 in parent CT26 cells; assay type: cell-based; settings: immunoblot (S10 Fig)
# T4 construct: endogenous in cells; host or cells: CT26 (parent line, and the endogenous protein in R232.hSTING.CT26)
# Experimental: as §3, with “(Millipore). […] Anti-rabbit HRP label secondary antibody (Abcam) and Clarity Max™ western ECL substrate (Biorad—cat# 1705062) were used for visualization of bands using a BioRad XRS plus imager.” for “(Millipore).”
# [5] = molecular target: T5, recombinant CTT domain of R232 STING (Homo sapiens, UniProt Q86WV6, H232R); assay: In vitro kinase assay, recombinant CTT domain of R232 STING plus recombinant TBK1; assay type: biochemical; settings: cell free, immunoblot
# T5 construct: corresponding to the soluble domain of STING (138 to 379 aa) protein; purchased Cayman Chemicals (STING); Invitrogen (TBK1) 22816 (STING); A31514 (TBK1)
# Experimental: 50ng of recombinant STING protein (Cayman Chemicals Cat# 22816) corresponding to the soluble domain of STING (138 to 379 aa) protein or 1 μl of ER fraction (8mg/ml) containing full length STING from R232.hSTING was incubated with 20 ng of recombinant full length TBK1 protein (Invitrogen, Cat# A31514) in the presence/absence of test compound in 20 μl reaction buffer (50mM Tris-HCl of pH 7.4, 100mM NaCl, 5mM MgCl2, 5mM MnCl2, 10% glycerol, 0.2mM Na3VO4, 20mM β-glycero-PO4, 0.5mM ATP) and 0.01% BSA at 30 °C for 45 min. The reaction was quenched by addition of 2 μl of 10X EDTA to a final concentration of […]. Samples were treated with 4x gel loading dye followed by electrophoresis in 10% SDS-PAGE gels and transferred to Immobilon-P membranes (Millipore). […] Anti-rabbit HRP labelled secondary antibody (Abcam) and Clarity Max™ western ECL substrate (Biorad, Cat# 1705062) were used for visualization of bands using a BioRad XRS plus imager.
# [6] = molecular target: R232 STING (R232-HEK293T cells) (Homo sapiens, UniProt Q86WV6, H232R); assay: Ligand induced change in STING melting temperature, R232-HEK293T whole cells; settings: whole cells (S8 and S9 Figs)
# R232 STING (R232-HEK293T cells), sequence (Q86WV6 whole entry H232R): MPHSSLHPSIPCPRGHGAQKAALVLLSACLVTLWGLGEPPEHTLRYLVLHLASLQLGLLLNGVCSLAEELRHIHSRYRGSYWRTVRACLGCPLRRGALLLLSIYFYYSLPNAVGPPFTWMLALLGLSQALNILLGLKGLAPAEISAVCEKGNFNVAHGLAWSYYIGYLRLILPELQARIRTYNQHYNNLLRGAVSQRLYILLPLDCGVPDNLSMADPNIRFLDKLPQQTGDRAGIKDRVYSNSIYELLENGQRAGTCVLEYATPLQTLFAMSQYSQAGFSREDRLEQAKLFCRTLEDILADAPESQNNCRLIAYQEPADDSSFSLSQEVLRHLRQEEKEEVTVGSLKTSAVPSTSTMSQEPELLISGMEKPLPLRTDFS
# Experimental: Two sources of STING (ER fraction of N-His R232.hSTING HEK293T and R232.hSTING HEK293T whole cells) were used for melting temperature experiments. […] (b) 5 x 10^5 R232.hSTING cells were seeded in 24-well plates in 500 μl growth medium and stimulated with serially diluted concentrations of agonist. After 2hr of stimulation cells were harvested through centrifugation and 20 μl cells suspensions were transferred into 0.2 ml PCR-tubes and heated as above. All procedures were identical post-heating of samples. […] Precipitated proteins were separated from the soluble fraction by centrifugation at 21000g for 20 min at 4 °C. Extracted soluble protein was electrophoresed in 10% SDS-PAGE gels and transferred onto Immobilon-P membranes (Millipore). Blots were incubated with antibodies specific for total STING (Cell Signaling).
# T5 sequence (Q86WV6 138-379 H232R): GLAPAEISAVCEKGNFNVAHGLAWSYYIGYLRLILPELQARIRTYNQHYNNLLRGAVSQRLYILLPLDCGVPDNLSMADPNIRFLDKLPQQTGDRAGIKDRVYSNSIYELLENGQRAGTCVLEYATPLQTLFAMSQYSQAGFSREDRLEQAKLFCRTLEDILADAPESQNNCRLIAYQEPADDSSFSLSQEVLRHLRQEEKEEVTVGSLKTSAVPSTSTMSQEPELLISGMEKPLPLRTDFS
# T2 sequence (Q86WV6 whole entry R71H/G230A/R293Q): as the sequence (Q86WV6 whole entry H232R) above, with R71H, G230A, R232H, R293Q counted along it
# HAQ variant of human STING, sequence (Q86WV6 whole entry R71H/G230A/R293Q): as the sequence (Q86WV6 whole entry H232R) above, with R71H, G230A, R232H, R293Q counted along it
# T1 sequence (Q86WV6 whole entry R293Q): as the sequence (Q86WV6 whole entry H232R) above, with R232H, R293Q counted along it
# T3 sequence (Q86WV6 whole entry H232R): as the sequence (Q86WV6 whole entry H232R) above
# T4 sequence (Q3TBT3 whole entry): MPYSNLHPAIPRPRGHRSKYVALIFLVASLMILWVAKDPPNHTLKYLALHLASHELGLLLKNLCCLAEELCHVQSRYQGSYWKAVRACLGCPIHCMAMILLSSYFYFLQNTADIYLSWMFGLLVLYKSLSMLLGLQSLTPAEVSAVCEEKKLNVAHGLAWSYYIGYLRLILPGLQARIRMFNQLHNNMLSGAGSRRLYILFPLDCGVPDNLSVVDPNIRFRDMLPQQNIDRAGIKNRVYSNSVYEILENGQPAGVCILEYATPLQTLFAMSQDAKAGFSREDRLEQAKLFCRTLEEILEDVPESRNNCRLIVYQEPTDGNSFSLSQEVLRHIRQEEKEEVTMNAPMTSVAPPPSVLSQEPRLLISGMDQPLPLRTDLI
structure (smiles),measurement,setting,value
"O=C(NCc1ccco1)c1ccc2c(c1)N(Cc1c(F)cccc1Cl)C(=O)CS2 [Compound G10, 4-(2-Chloro-6-fluorobenzyl)-N-(furan-2-ylmethyl)-3-oxo-3,4-dihydro-2H-benzo[b][1,4]thiazine-6-carboxamide]",response of parent HEK293T cells (reporter gene expression),parent HEK293T cells,unresponsive
same,activity against the HAQ variant,[1],less active
same,activity against the Q variant,Q variant of human STING,barely active
same,EC50,[2],4.3 µM
same,THP-1 EC50,HAQ STING (THP-1 cells),Nil @ 30uM
same,phosphorylated hSTING (and mIRF3) in CT26 cells overexpressing R232.hSTING,R232.hSTING (CT26 cells),significant amounts
same,solubility,[3],20 µM
same,"phosphorylation of mSTING or mIRF3, parent CT26 line",[4],did not lead to phosphorylation
same,"formation of pSTING by TBK1, recombinant CTT domain of R232 STING",[5],activated
same,"ligand induced change in STING melting temperature, R232-HEK293T cells",[6],did not demonstrate a significant ligand induced change
